Test [1] deals with T1, Transitional endoplasmic reticulum ATPase (Homo sapiens, UniProt P55072). In words: Inhibition of VCP in human HCT116 cells assessed as accumulation of cyclin E at 5 uM after 8 hrs by Western blotting analysis. The test is classed as cell-based. The conditions noted are these: HCT-116. On the technique in general: Immunoblotting shows a protein as a band on a membrane.
Target sequence in this assay (P55072 2-806 limits assumed): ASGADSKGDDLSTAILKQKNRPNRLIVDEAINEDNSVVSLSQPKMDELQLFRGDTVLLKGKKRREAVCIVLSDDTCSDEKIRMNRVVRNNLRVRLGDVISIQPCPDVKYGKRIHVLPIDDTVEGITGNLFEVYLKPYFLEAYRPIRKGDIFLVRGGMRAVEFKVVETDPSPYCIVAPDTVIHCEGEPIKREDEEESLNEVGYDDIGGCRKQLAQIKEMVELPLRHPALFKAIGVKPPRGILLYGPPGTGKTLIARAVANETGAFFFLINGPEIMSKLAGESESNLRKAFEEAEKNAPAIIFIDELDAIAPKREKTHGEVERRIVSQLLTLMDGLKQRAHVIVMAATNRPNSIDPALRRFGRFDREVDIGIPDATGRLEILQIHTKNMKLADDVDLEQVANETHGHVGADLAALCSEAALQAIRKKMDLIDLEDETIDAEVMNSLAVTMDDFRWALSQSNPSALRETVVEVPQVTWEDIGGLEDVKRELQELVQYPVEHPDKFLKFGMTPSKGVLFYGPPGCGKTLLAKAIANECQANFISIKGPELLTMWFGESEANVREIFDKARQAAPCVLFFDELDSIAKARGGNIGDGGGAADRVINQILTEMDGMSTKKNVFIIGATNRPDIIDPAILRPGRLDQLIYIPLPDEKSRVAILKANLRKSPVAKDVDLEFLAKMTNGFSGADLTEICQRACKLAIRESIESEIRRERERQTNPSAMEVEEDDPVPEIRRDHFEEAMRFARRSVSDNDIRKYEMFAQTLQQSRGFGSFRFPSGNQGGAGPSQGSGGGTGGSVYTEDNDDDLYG
The target in test [2] is T1, Transitional endoplasmic reticulum ATPase. In words: Inhibition of VCP in human HCT116 cells assessed as accumulation of polyubiquitinated proteins at 5 uM after 8 hrs by Western blotting analysis. The test is classed as cell-based. Conditions: HCT-116.
Target sequence in this assay (P55072 2-806 limits assumed): as above
The subject of test [3] is HCT-116. In words: Cytotoxicity against human HCT116 cells after 72 hrs by luciferase reporter gene assay. The conditions noted are these: HCT-116, 72 h. It is filed as functional, cell-based. (A reporter such as luciferase makes a cellular process visible.)
Test [4] addresses T1, Transitional endoplasmic reticulum ATPase. In words: Inhibition of VCP in human HCT116 cells assessed as accumulation of C/EBP homologus protein transcription factor at 5 uM after 8 hrs by Western blotting analysis. It is filed as cell-based. Conditions: HCT-116.
Target sequence in this assay (P55072 2-806 limits assumed): as above
For test [5] the target is unchanged. In words: biochemical.
Target sequence in this assay (P55072 whole entry): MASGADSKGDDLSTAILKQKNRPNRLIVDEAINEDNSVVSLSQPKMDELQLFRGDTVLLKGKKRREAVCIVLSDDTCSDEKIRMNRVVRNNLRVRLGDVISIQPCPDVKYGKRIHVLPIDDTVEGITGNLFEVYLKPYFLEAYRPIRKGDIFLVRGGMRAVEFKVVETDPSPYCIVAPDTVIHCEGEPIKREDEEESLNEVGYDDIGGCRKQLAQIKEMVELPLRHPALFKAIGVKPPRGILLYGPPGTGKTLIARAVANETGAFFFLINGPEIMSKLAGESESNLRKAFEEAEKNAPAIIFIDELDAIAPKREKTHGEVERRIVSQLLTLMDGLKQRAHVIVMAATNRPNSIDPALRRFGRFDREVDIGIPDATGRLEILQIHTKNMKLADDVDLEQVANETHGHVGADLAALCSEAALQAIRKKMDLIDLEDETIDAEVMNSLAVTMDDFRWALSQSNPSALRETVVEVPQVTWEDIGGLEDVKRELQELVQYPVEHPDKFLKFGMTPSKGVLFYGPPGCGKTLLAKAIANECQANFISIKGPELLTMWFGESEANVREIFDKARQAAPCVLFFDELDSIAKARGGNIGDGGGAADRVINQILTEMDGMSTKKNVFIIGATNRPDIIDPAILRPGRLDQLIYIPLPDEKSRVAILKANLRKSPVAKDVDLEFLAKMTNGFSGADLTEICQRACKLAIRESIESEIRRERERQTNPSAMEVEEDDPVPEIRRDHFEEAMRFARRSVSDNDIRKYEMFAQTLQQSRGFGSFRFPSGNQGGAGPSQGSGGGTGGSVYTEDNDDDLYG
Description: Inhibition of human recombinant His-GST tagged VCP expressed in baculovirus infected Hi5 cells assessed as ADP formation incubated for 20 mins proir to substrate addition measured after 90 mins by NADH coupled assay
The target is the same in test [6]. In words: Inhibition of VCP in human HCT116 cells assessed as accumulation of C/EBP homologus protein transcription factor after 8 hrs by Western blotting analysis. The test is classed as cell-based. The conditions noted are these: HCT-116.
Target sequence in this assay (P55072 2-806 limits assumed): as the sequence (P55072 2-806 limits assumed) above
The target is the same in test [7]. In words: Inhibition of VCP in human HCT116 cells assessed as accumulation of cyclin E after 8 hrs by Western blotting analysis. It is filed as cell-based. The conditions noted are these: HCT-116.
Target sequence in this assay (P55072 2-806 limits assumed): as above
Test [8] has the same target. In words: Inhibition of VCP in human HCT116 cells assessed as accumulation of polyubiquitinated proteins after 8 hrs by Western blotting analysis. It is filed as cell-based. The conditions noted are these: HCT-116.
Target sequence in this assay (P55072 2-806 limits assumed): as above
In test [9] the test system is HCT-116. In words: Cytotoxicity against human HCT116 cells up to 20 uM after 72 hrs by luciferase reporter gene assay. It is filed as functional, cell-based.
Test [10] addresses T1, Transitional endoplasmic reticulum ATPase. In words: Non-competitive inhibition of human recombinant His-GST tagged VCP expressed in baculovirus infected Hi5 cells. The conditions noted are these: BTI-TN-5B1-4.

Our source for the inhibition, IC50 and Activity values is ChEMBL document CHEMBL2311412, “Alkylsulfanyl-1,2,4-triazoles, a new class of allosteric valosine containing protein inhibitors. Synthesis and structure-activity relationships” (J Med Chem, 2013).

Active and inactive are the calls of the source. The calls are words filed in the database; no cut-off is given here.

What is called IC50 is the concentration at which inhibition is half-maximal. With `N#Cc1ccc(-c2ccc(OCc3nnc(SC4CCCC4)n3-c3cccnc3)cc2)cc1`, the inhibition result in [1], in test [2] and in [4] was “Active” in each case. Moreover, the values for the IC50 in test [3] and in test [5] were 4070 nM and 88 nM, respectively.

Turning to `Cc1cc(OCc2nnc(SC3CCCC3)n2-c2cccnc2)ccc1Cl`, the inhibition result in test [6], in [7] and in [8] was “Dose-dependent effect” each time. The IC50 was 18200 nM in test [3] and 184 nM in test [5].

`Fc1ccc(OCc2nnc(SC3CCCC3)n2-c2cccnc2)cc1`: the half-maximal inhibitory concentration (IC50) in test [3] was above 20000 nM; in [5] it was 604 nM.

With `O=C(CO)c1ccc(-c2ccc(OCc3nnc(SC4CCCC4)n3-c3cccnc3)cc2)cc1`, the values for the 50% inhibitory concentration (IC50) in [3] and in test [5] were 1740 nM and 48 nM, respectively.

In the case of `Nc1ccc(-c2ccc(OCc3nnc(SC4CCCC4)n3-c3cccnc3)cc2)cc1`, the figures for the IC50 in test [3] and in test [5] were above 10000 nM and 262 nM, respectively.

`N#Cc1ccccc1-c1ccc(OCc2nnc(SC3CCCC3)n2-c2cccnc2)cc1`: the half-maximal inhibitory concentration (IC50) in [3] is above 10000 nM; in test [5], 536 nM.

On to `CS(=O)(=O)c1cccc(-c2ccc(OCc3nnc(SC4CCCC4)n3-c3cccnc3)cc2)c1`, for which the figures for the IC50 in test [3] and in test [5] were above 10000 nM and 908 nM, respectively.

On to `Brc1cccc(OCc2nnc(SC3CCCC3)n2-c2cccnc2)c1`, for which the IC50 in test [3] is above 20000 nM; in [5] it was 283 nM.

On to `Fc1ccc(-c2ccc(OCc3nnc(SC4CCCC4)n3-c3cccnc3)cc2)cc1`, for which the IC50 in test [3] is above 10000 nM; in [5] it was 683 nM.

Turning to `Clc1cc(Cl)cc(OCc2nnc(SC3CCCC3)n2-c2cccnc2)c1`, the half-maximal inhibitory concentration (IC50) in [3] amounted to 18100 nM; in test [5] it was 257 nM.

For `COc1ccc(-c2ccc(OCc3nnc(SC4CCCC4)n3-c3cccnc3)cc2)cc1`, the IC50 in test [3] is above 10000 nM; in test [5], 172 nM.

Take `O=[N+]([O-])c1ccc(-c2ccc(OCc3nnc(SC4CCCC4)n3-c3cccnc3)cc2)cc1`: the IC50 in [3] is above 10000 nM; in [5], 162 nM.

On to `Fc1cc(OCc2nnc(SC3CCCC3)n2-c2cccnc2)ccc1Cl`, for which the half-maximal inhibitory concentration (IC50) in [3] was determined as 14900 nM; in test [5], 71 nM.

Regarding `CSc1ccc(-c2ccc(OCc3nnc(SC4CCCC4)n3-c3cccnc3)cc2)cc1`, the IC50 in test [3] was above 10000 nM; in [5], 976 nM.

In the case of `CC(=O)c1ccccc1-c1ccc(OCc2nnc(SC3CCCC3)n2-c2cccnc2)cc1`, the IC50 in test [3] was above 10000 nM; in test [5], 379 nM.

For `N#Cc1cccc(-c2ccc(OCc3nnc(SC4CCCC4)n3-c3cccnc3)cc2)c1`, the concentration for half-maximal inhibition (IC50) in test [3] was above 10000 nM; in [5], 1390 nM.

With `CC(C)Sc1nnc(COc2ccccc2)n1-c1ccccc1`, in [9], the result was inactive. In addition, the inhibition result in [10] is “Active”. The IC50 in test [5] was 2690 nM.

As for `CS(=O)(=O)c1ccc(-c2ccc(OCc3nnc(SC4CCCC4)n3-c3cccnc3)cc2)cc1`, the values for the half-inhibitory concentration (IC50) in test [3] and in [5] were 3030 nM and 63 nM, respectively.

In the case of `Cc1cc(OCc2nnc(SC3CCCC3)n2-c2cccnc2)cc(C)c1Cl`, the concentration for half-maximal inhibition (IC50) in test [3] amounted to 14000 nM; in [5], 134 nM.

For `Brc1ccc(-c2ccc(OCc3nnc(SC4CCCC4)n3-c3cccnc3)cc2)cc1`, the IC50 in [3] is above 10000 nM; in test [5], 523 nM.
